Laboratory results published in ChEMBL document CHEMBL3352736, “Synthesis and preliminary biological evaluation of new antiproliferative aromatic analogues of 1α,25-dihydroxyvitamin D3” (Eur J Med Chem, 2014).

System: HL-60
Test: […] of human HL60 cells incubated for 144 hrs by Wst-1 dye based assay
Assay type: functional
Conditions: HL-60, 144 h

| Structure (SMILES) | IC50 [µM] |
| --- | --- |
| C[C@H](CCCC(C)(C)O)[C@H]1CC[C@H]2/C(=C/c3cccc(C(O)CCO)c3)CCC[C@]12C (some centres not stated) | 1.4 |
| C[C@H](CC#CC(C)(C)O)[C@H]1CC[C@H]2/C(=C/c3ccc(CO)c(CO)c3)CCC[C@]12C | 0.6 |
| CC(C)CCC[C@@H](C)[C@H]1CC[C@H]2/C(=C/c3cccc(CO)c3CO)CCC[C@]12C | 32.4 |
| C[C@H](CC#CC(C)(C)O)[C@H]1CC[C@H]2/C(=C/c3cccc(CO)c3CO)CCC[C@]12C | > 100 |

Further molecules by falling IC50, results first:

| IC50 [µM] | Structure (SMILES) |
| --- | --- |
| 63.2 | CC(C)CCC[C@@H](C)[C@H]1CC[C@H]2/C(=C/c3ccc(CO)c(CO)c3)CCC[C@]12C |
| 7.8 | C[C@H](CC#CC(C)(C)O)[C@H]1CC[C@H]2/C(=C/c3cccc(C(O)CCO)c3)CCC[C@]12C (some centres not stated) |
| 5.4 | CC(C)CCC[C@@H](C)[C@H]1CC[C@H]2/C(=C/c3cccc(C(O)CCO)c3)CCC[C@]12C (some centres not stated) |
